Measurements reported in patent US20250195457A1, “PHARMACEUTICAL COMPOSITION FOR TREATMENT OF PARKINSON'S DISEASE” (Eisai R&D Management Co., Ltd., priority 2022, published 2025).

Experiments:
[1] = system: Parkinson's disease model cynomolgus monkeys (MPTP); assay: Test Example 1: NDSs after administration of Compound (I) alone in MPTP Parkinson's disease model monkeys; type: in vivo; parameters: key to Subgroup 2: Specific motor functions score: specific motor functions subscore, range 0-21
Procedure: The therapeutic effect of Compound (I) on Parkinson's disease was examined using Parkinson's disease model animals which are produced by administering MPTP (1-methyl-4-phenyl-1,2,3,6-tetrahydropyridine).
MPTP was administered to male cynomolgus monkeys at the age of 4 to 5 to make Parkinson's disease model cynomolgus monkeys. MPTP was additionally administered to animals with neurologic deficit scores (Neurological deficit scores: NDSs, Schneider et al., “Development of levodopa-induced dyskinesias in parkinsonian monkeys may depend upon rate of symptom onset and/or duration of symptoms”, Brain Res., 2003, 990:38-44.) of less than 25.
Eight Parkinson's disease model cynomolgus monkeys were randomized into 5 groups of approximately equal mean and variance in terms of Parkinson behavior rating (Tremor score) and body weight. On subsequent cycle 2, cycle 3, cycle 4 and cycle 5, the animals were crossed over to receive the other treatments. A wash out period of one week or more was set between each cycle.
By the end of the study, each animal had received all the five treatments. Istradefylline is an adenosine A2A receptor antagonist approved as a drug for improving a wearing off phenomenon in Parkinson's disease being treated with a levodopa-containing preparation in the United States of America and Japan (Patent Literature 4). As a vehicle, an aqueous solution containing 0.43% (w/v) methyl cellulose 400, 10% (v/v) dimethyl sulfoxide (DMSO), and 4.5% (w/v) Cremophor (R) was used.
Before the administration, and 1 hr., 4 hrs., and 24 hrs. after the administration of the test substances, the NDSs of the monkeys were evaluated. The evaluation items are as follows. The behavior evaluation was performed in a blinded manner. The NDSs of the groups were compared using Steel's test. The p-values of less than 0.05 were considered to be statistically significant.
Subgroup 1: generalized behaviors (0-32) • 1.1a Appetite • 0: Normal • 1: Up to 30% food left • 2: Up to 65% food left • 3: Greater than 65% food left • 1.1b Response to offered food • 0: Responds to offered food • 1: Inconsistent response to offered food • 2: Little to no interest in offered food • 1.2 Overall activity • 0: Normal • 1: Mild hypokinesia; decrease in spontaneous movement • 2: Moderate hypokinesia; sparse spontaneous movement • 3: Severe hypokinesia; no spontaneous movement; tends to remain in one place • 1.3 Appearance • 0: Normal • 1: Mild but noticeable decrease in self-maintenance • 2: Moderate decrease in self-maintenance • 3: Severe lack of self-maintenance • 1.4 Posture • 0: Normal • 1: Minor flexing or stooping • 2: Moderate flexing or stooping; head and upper body almost parallel to floor of cage • 3: Severe flexing or stooping; head lowered to feet • 1.5 Balance • 0: Normal • 1: Mild loss on arising or movement • 2: Moderate loss on arising or movement; occasionally falls or supports self to keep from falling • 3: Severe loss of balance; falls • 1.6 Climbing • 0: Climbing observed with no delays in initiation/execution • 1: Mild deficit in ability to climb and support weight • 2: Moderate deficit in ability to climb and support weight; tends to ‘slide down’ • 3: Absence of any climbing behavior • 1.7 Tremor • 0: Absent • 1: Slight and intermittent • 2: Slight and persistent or moderate and intermittent • 3: Moderate/severe and persistent • 1.8 Freezing during movement • 0: Absent • 1: Occasional freezing for brief periods • 2: Occasional freezing for prolonged periods or frequent freezing for brief periods • 3: Prolonged and frequent freezing • 1.9 Facial expression • 0: Normal • 1: Mild hypomimia • 2: Moderate hypomimia • 3: Severe, masked fixed faces • 1.10 Defense reaction • 0: Normal • 1: Mild, noticeable reduction in reaction or slowed reaction, but can be provoked to react • 2: Moderate reduction in reaction; can produce facial display but not body reaction • 3: Little to no response
Subgroup 2: Specific Motor Functions (0-21)

mouse kindling model = conditions: anti-seizure effect (ED50) in mouse kindling model versus neurotoxic effect (TD50) in rotarod test; compared with a control compound; cited from earlier work
[2] = Compound (I) high dose 50 mg/kg (G4), 1 hr. after administration
[3] = Compound (I) high dose 50 mg/kg (G4), 4 hrs. after administration
[4] = Compound (I) high dose 50 mg/kg (G4), 24 hrs. after administration
[5] = Compound (I) high dose 50 mg/kg (G4), Pre (before administration)
[6] = Compound (I) low dose 5 mg/kg (G2), 1 hr. after administration
[7] = Compound (I) low dose 5 mg/kg (G2), 4 hrs. after administration
[8] = Compound (I) low dose 5 mg/kg (G2), 24 hrs. after administration
[9] = Compound (I) low dose 5 mg/kg (G2), Pre (before administration)
[10] = Compound (I) middle dose 15 mg/kg (G3), 1 hr. after administration
[11] = Compound (I) middle dose 15 mg/kg (G3), 4 hrs. after administration
[12] = Compound (I) middle dose 15 mg/kg (G3), 24 hrs. after administration
[13] = Compound (I) middle dose 15 mg/kg (G3), Pre (before administration)

## NS(=O)(=O)N[C@H]1c2c(F)cc(F)cc2CC1(F)F [Compound (I), N-[(1S)-2,2,5,7-tetrafluoro-2,3-dihydro-1H-inden-1-yl]sulfamide]
[1]; [2]
  Subgroup 1: GENERALIZED BEHAVIORS score: 17.1 ± 0.8
  Subgroup 2: Specific motor functions score: 12.0 ± 0.5
  Total score of NDSs: 29.1 ± 1.3
  Tremor score: 1.6 ± 0.2
[1]; [3]
  Subgroup 1: GENERALIZED BEHAVIORS score: 14.8 ± 1.0
  Subgroup 2: Specific motor functions score: 9.9 ± 0.5
  Total score of NDSs: 24.6 ± 1.3
  Tremor score: 1.1 ± 0.1
[1]; [4]
  Subgroup 1: GENERALIZED BEHAVIORS score: 17.3 ± 1.1
  Subgroup 2: Specific motor functions score: 12.0 ± 0.6
  Total score of NDSs: 29.3 ± 1.6
  Tremor score: 1.4 ± 0.2
[1]; [5]
  Subgroup 1: GENERALIZED BEHAVIORS score: 19.0 ± 0.8
  Subgroup 2: Specific motor functions score: 13.5 ± 0.4
  Total score of NDSs: 32.5 ± 1.1
  Tremor score: 2.1 ± 0.1
[1]; [6]
  Subgroup 1: GENERALIZED BEHAVIORS score: 16.1 ± 0.9
  Subgroup 2: Specific motor functions score: 11.5 ± 0.6
  Total score of NDSs: 27.6 ± 1.5
  Tremor score: 1.8 ± 0.2
[1]; [7]
  Subgroup 1: GENERALIZED BEHAVIORS score: 16.0 ± 0.7
  Subgroup 2: Specific motor functions score: 12.5 ± 0.3
  Total score of NDSs: 28.5 ± 1.0
  Tremor score: 1.8 ± 0.2
[1]; [8]
  Subgroup 1: GENERALIZED BEHAVIORS score: 17.1 ± 0.8
  Subgroup 2: Specific motor functions score: 11.9 ± 0.4
  Total score of NDSs: 29.0 ± 1.0
  Tremor score: 2.1 ± 0.1
[1]; [9]
  Subgroup 1: GENERALIZED BEHAVIORS score: 17.4 ± 0.8
  Subgroup 2: Specific motor functions score: 13.3 ± 0.5
  Total score of NDSs: 30.6 ± 1.1
  Tremor score: 2.0 ± 0.0
[1]; [10]
  Subgroup 1: GENERALIZED BEHAVIORS score: 15.5 ± 1.0
  Subgroup 2: Specific motor functions score: 12.3 ± 0.5
  Total score of NDSs: 27.8 ± 1.5
  Tremor score: 1.6 ± 0.2
[1]; [11]
  Subgroup 1: GENERALIZED BEHAVIORS score: 15.0 ± 0.8
  Subgroup 2: Specific motor functions score: 11.5 ± 0.4
  Total score of NDSs: 26.5 ± 1.0
  Tremor score: 1.6 ± 0.2
[1]; [12]
  Subgroup 1: GENERALIZED BEHAVIORS score: 16.8 ± 0.9
  Subgroup 2: Specific motor functions score: 12.8 ± 0.3
  Total score of NDSs: 29.5 ± 1.1
  Tremor score: 1.8 ± 0.2
[1]; [13]
  Subgroup 1: GENERALIZED BEHAVIORS score: 17.3 ± 0.6
  Subgroup 2: Specific motor functions score: 12.9 ± 0.4
  Total score of NDSs: 30.1 ± 0.9
  Tremor score: 2.0 ± 0.0
Mouse kindling model
  therapeutic index (TD50/ED50): higher
